# Data published in patent US12435092B2, “Substituted imidazo[1,2-A]quinazolines as inhibitors of PARG” (858 Therapeutics, Inc., priority 2022, dated 2025).
# Biological target: T1, cellular PARG (Homo sapiens, UniProt Q86W56)
# T1 construct: endogenous in cells; host or cells: HeLa
# Assay: Nuclear PAR accumulation assay (immunofluorescence high-content imaging)
# Format: cell-based
# Settings: HeLa cells, 1 hour compound treatment then MMS 50 μg/mL for an additional hour
# Experimental: Compound IC50 values for inhibition of cellular PARG were determined using an immunofluorescence high-content imaging assay for nuclear PAR accumulation. HeLa cells were plated at 15,000 cells/well in a 96-well plate the day before compound treatment and then treated with varying concentrations of test compound and incubated for 1 hour at 37° C.+5% CO2. Following test compound treatment, methylmethane sulfonate (MMS) was added to a final concentration of 50 μg/mL and the cells were incubated for an additional hour. Following treatment, the cells were fixed with ice cold 95% methanol and the plates sealed and placed at −20° C. for 15 minutes. The cells were then washed once with phosphate buffered saline (PBS) and permeabilized with 0.1% Triton-X 100 for 20 minutes at room temperature. The cells were again washed once with PBS and incubated with an anti-poly-ADP ribose (PAR) monoclonal antibody (Millipore Part #AM80 clone 10H) diluted 1:1,000 in 5% fetal bovine serum +0.1% Tween-20+PBS overnight at 4° C. The cells were then washed three times with PBS before incubation with a fluorescently conjugated goat anti-mouse antibody (Invitrogen A32723) diluted 1:500 in 5% FBS+0.1% Tween-20+PBS for 1 hour at room temperature. The cells were again washed three times with PBS and the nuclei labeled by incubating with 1 μg/mL DAPI (4′,6-diamidino-2-phenylindole). Nuclear PAR accumulation was evaluated using high-content fluorescence microscopy. Four fields for each well were acquired at 20× magnification resulting in at least 1,000 cells analyzed per well. Using high-content software (CellReporterXpress) the nuclei were detected and segmented using the DAPI channel and the fluorescence intensity of the PAR-Alexa 488 channel was quantified within the nuclei regions. Both the average intensity per nucleus and percent PAR positive cells were quantified. Percent PAR positive cells were identified by having greater anti-PAR labeling above the threshold set with vehicle DMSO treated control cells. Percent inhibition of PARG by test compounds was calculated by normalizing the data to the 0.1% DMSO and reference compound control values, which represent 0% and 100% inhibition of enzymatic activity, respectively. Concentration-response-curves and IC50 values were generated using four parameter logistic curve fit software.
# T1 sequence (Q86W56 whole entry): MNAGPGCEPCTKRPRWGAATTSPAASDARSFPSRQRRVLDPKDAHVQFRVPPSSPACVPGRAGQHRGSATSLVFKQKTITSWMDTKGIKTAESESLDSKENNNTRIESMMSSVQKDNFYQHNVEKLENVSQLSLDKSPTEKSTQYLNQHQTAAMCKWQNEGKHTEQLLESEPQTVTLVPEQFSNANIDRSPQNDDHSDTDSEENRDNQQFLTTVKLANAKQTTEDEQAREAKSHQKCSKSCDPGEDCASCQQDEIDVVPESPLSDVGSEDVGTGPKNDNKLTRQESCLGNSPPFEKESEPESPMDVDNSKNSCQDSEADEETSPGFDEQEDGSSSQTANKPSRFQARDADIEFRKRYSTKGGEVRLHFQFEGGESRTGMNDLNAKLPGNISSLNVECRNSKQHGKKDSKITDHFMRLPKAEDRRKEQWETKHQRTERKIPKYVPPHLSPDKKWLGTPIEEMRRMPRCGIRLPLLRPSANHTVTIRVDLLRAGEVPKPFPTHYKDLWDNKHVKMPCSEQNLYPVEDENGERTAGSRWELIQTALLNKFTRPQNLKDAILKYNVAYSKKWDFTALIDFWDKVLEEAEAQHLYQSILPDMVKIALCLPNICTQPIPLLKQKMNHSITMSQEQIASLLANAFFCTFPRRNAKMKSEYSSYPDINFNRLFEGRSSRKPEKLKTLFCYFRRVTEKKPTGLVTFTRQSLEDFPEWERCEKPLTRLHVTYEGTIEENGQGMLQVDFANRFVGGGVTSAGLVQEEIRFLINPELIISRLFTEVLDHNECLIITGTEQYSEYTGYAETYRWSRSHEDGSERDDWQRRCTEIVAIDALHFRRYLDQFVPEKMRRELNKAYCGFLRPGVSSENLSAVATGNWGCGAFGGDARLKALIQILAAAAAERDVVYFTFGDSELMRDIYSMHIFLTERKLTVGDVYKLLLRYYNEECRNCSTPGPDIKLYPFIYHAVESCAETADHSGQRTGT
row,IC50,SMILES
1,≤ 0.1 µM,"[2H]C([2H])(c1sc(C)nc1C)N1C(=O)c2cc(S(=O)(=O)NC3(C)CC3)c(F)cc2N2C1=NC[C@H]2C [Example 113, (R)-4-(dideutero(2,4-dimethylthiazol-5-yl)methyl)-8-fluoro-1-methyl-N-(1-methylcyclopropyl)-5-oxo-1,2,4,5-tetrahydroimidazo[1,2-a]quinazoline-7-sulfonamide]"
2,0.1 to 1 µM,"Cc1ncc(CN2C(=O)c3cc(S(=O)(=O)NC4(C)CC4)ccc3N3C2=NC[C@@H]3C2CC2)s1 [Example 17, (S)-1-cyclopropyl-N-(1-methylcyclopropyl)-4-((2-methylthiazol-5-yl)methyl)-5-oxo-1,2,4,5-tetrahydroimidazo[1,2-a]quinazoline-7-sulfonamide]"
3,≤ 0.1 µM,"Cc1nc(C)c(CN2C(=O)c3cc(S(=O)(=O)NC4(C)CC4)ccc3N3C2=NC[C@H]3C)s1 [Example 73, (R)-4-((2,4-dimethylthiazol-5-yl)methyl)-1-methyl-N-(1-methylcyclopropyl)-5-oxo-1,2,4,5-tetrahydroimidazo[1,2-a]quinazoline-7-sulfonamide]"
4,0.1 to 1 µM,"C[C@@H]1CN2C(=N1)N(Cc1cnn(C)c1)C(=O)c1cc(S(=O)(=O)NC3(C)CC3)ccc12 [Example 107, (R)-2-methyl-4-((1-methyl-1H-pyrazol-4-yl)methyl)-N-(1-methylcyclopropyl)-5-oxo-1,2,4,5-tetrahydroimidazo[1,2-a]quinazoline-7-sulfonamide]"
5,≤ 0.1 µM,"[2H]C([2H])(c1cnn(C)c1)N1C(=O)c2cc(S(=O)(=O)NC3(C)CC3)ccc2N2C1=N[C@H]1CCC[C@H]12 [Example 85, (7aS,10aR)-6-(dideutero(1-methyl-1H-pyrazol-4-yl)methyl)-N-(1-methylcyclopropyl)-5-oxo-6,7a,8,9,10,10a-hexahydro-5H-cyclopenta[4,5]imidazo[1,2-a]quinazoline-3-sulfonamide]"
6,≤ 0.1 µM,"CCC1(C)CN2C(=N1)N(Cc1cnn(C)c1)C(=O)c1cc(S(=O)(=O)NC3(C)CC3)ccc12 (centres unmarked) [Example 117, 2-ethyl-2-methyl-4-((1-methyl-1H-pyrazol-4-yl)methyl)-N-(1-methylcyclopropyl)-5-oxo-1,2,4,5-tetrahydroimidazo[1,2-a]quinazoline-7-sulfonamide]"
7,0.1 to 1 µM,"COC[C@H]1CN=C2N(Cc3cnn(C)c3)C(=O)c3cc(S(=O)(=O)NC4(C)CC4)ccc3N21 [Example 78, (R)-1-(methoxymethyl)-4-((1-methyl-1H-pyrazol-4-yl)methyl)-N-(1-methylcyclopropyl)-5-oxo-1,2,4,5-tetrahydroimidazo[1,2-a]quinazoline-7-sulfonamide]"
8,0.1 to 1 µM,"C[C@@H]1CN=C2N(Cc3cnn(CCN(C)C)c3)C(=O)c3cc(S(=O)(=O)NC4(C)CC4)ccc3N21 [Example 53, (R)-4-((1-(2-(dimethylamino)ethyl)-1H-pyrazol-4-yl)methyl)-1-methyl-N-(1-methylcyclopropyl)-5-oxo-1,2,4,5-tetrahydroimidazo[1,2-a]quinazoline-7-sulfonamide]"
9,≤ 0.1 µM,"Cc1ncc(CN2C(=O)c3cc(S(=O)(=O)NC4(C)CC4)ccc3N3C2=NC[C@H]3C2CC2)s1 [Example 18, (R)-1-cyclopropyl-N-(1-methylcyclopropyl)-4-((2-methylthiazol-5-yl)methyl)-5-oxo-1,2,4,5-tetrahydroimidazo[1,2-a]quinazoline-7-sulfonamide]"
10,≤ 0.1 µM,"C[C@@H]1CN=C2N(Cc3cnn(C)c3)C(=O)c3cc(S(=O)(=O)NC4(C)CC4)cc(-c4ccc(F)cc4)c3N21 [Example 136, (R)-9-(4-fluorophenyl)-1-methyl-4-((1-methyl-1H-pyrazol-4-yl)methyl)-N-(1-methylcyclopropyl)-5-oxo-1,2,4,5-tetrahydroimidazo[1,2-a]quinazoline-7-sulfonamide]"
11,≤ 0.1 µM,"Cn1cc(CN2C(=O)c3cc(S(=O)(=O)NC4(C)CC4)ccc3N3C2=N[C@H]2CCC[C@H]23)cn1 [Example 79, (7aS,10aR)-6-((1-methyl-1H-pyrazol-4-yl)methyl)-N-(1-methylcyclopropyl)-5-oxo-6,7a,8,9,10,10a-hexahydro-5H-cyclopenta[4,5]imidazo[1,2-a]quinazoline-3-sulfonamide]"
12,0.1 to 1 µM,"Cc1ncn(C)c1CN1C(=O)c2cc(S(=O)(=O)NC3(C)CC3)ccc2N2C1=NC[C@H]2C [Example 115, (R)-4-((1,4-dimethyl-1H-imidazol-5-yl)methyl)-1-methyl-N-(1-methylcyclopropyl)-5-oxo-1,2,4,5-tetrahydroimidazo[1,2-a]quinazoline-7-sulfonamide]"
13,0.1 to 1 µM,"CCN1C(=O)c2cc(S(=O)(=O)NC3(C)CC3)ccc2N2C1=NC[C@H]2C(C)C [Example 38, (R)-4-ethyl-1-isopropyl-N-(1-methylcyclopropyl)-5-oxo-1,2,4,5-tetrahydroimidazo[1,2-a]quinazoline-7-sulfonamide]"
14,≤ 0.1 µM,"Cc1ncc(CN2C(=O)c3cc(S(=O)(=O)NC4(C)CC4)ccc3N3C2=NC[C@H]3C(C)C)s1 [Example 20, (R)-1-isopropyl-N-(1-methylcyclopropyl)-4-((2-methylthiazol-5-yl)methyl)-5-oxo-1,2,4,5-tetrahydroimidazo[1,2-a]quinazoline-7-sulfonamide]"
15,1 to 10 µM,"Cn1cc(CN2C(=O)c3cc(S(=O)(=O)NC4(C)CC4)ccc3N3C2=NC[C@@H]3C#CC2CC2)cn1 [Example 84, (S)-1-(cyclopropylethynyl)-4-((1-methyl-1H-pyrazol-4-yl)methyl)-N-(1-methylcyclopropyl)-5-oxo-1,2,4,5-tetrahydroimidazo[1,2-a]quinazoline-7-sulfonamide]"
16,1 to 10 µM,"Cc1ncc(CN2C(=O)c3cc(S(=O)(=O)NC4(C)CC4)ccc3N3C2=NC[C@H]3C)[nH]1 [Example 112, (R)-1-methyl-4-((2-methyl-1H-imidazol-5-yl)methyl)-N-(1-methylcyclopropyl)-5-oxo-1,2,4,5-tetrahydroimidazo[1,2-a]quinazoline-7-sulfonamide]"
17,≤ 0.1 µM,"C[C@@H]1CN=C2N(Cc3cnn4c3OCCC4)C(=O)c3cc(S(=O)(=O)NC4(C)CC4)ccc3N21 [Example 119, (R)-4-((6,7-dihydro-5H-pyrazolo[5,1-b][1,3]oxazin-3-yl)methyl)-1-methyl-N-(1-methylcyclopropyl)-5-oxo-1,2,4,5-tetrahydroimidazo[1,2-a]quinazoline-7-sulfonamide]"
18,≤ 0.1 µM,"Cn1cc(CN2C(=O)c3cc(S(=O)(=O)NC4(C)CC4)ccc3N3C2=NC[C@H]3C(F)(F)F)cn1 [Example 65, (S)-1-trifluoromethyl-4-((1-methyl-1H-pyrazol-4-yl)methyl)-N-(1-methylcyclopropyl)-5-oxo-1,2,4,5-tetrahydroimidazo[1,2-a]quinazoline-7-sulfonamide]"
19,1 to 10 µM,"CC[C@H]1CN=C2N(Cc3cc(C)no3)C(=O)c3cc(S(=O)(=O)NC4(C)CC4)ccc3N21 [Example 23, (S)-1-ethyl-N-(1-methylcyclopropyl)-4-((3-methylisoxazol-5-yl)methyl)-5-oxo-1,2,4,5-tetrahydroimidazo[1,2-a]quinazoline-7-sulfonamide]"
20,0.1 to 1 µM,"Cc1nc(C)c([C@@H]2CN=C3N(CC4CC4)C(=O)c4cc(S(=O)(=O)NC5(C)CC5)ccc4N32)s1 [Example 82, (S)-4-(cyclopropylmethyl)-1-(2,4-dimethylthiazol-5-yl)-N-(1-methylcyclopropyl)-5-oxo-1,2,4,5-tetrahydroimidazo[1,2-a]quinazoline-7-sulfonamide]"
